Converted amounts (≈) assume the structure as drawn.
Columns and labels:
[1] = test system: BALB/3T3 clone A31 fibroblast cells; test: Cytotoxicity screening (WST-1); type: cell-based, murine; conditions: Mus musculus, 4 h incubation, read-out: IC50 of cell viability
Method: BALB/3T3 clone A31 fibroblast cells were grown in Dulbecco’s Modified Eagle Medium (DMEM), supplemented with 2 mM L-glutamine, 1% penicillin/streptomycin, and 10% bovine calf serum. Cells were grown in a CO2 incubator (Heracell 150i series) at 37 °C and 5% CO2, with cells sub-cultured at 80–90% confluency. The cell monolayers were rinsed with PBS and treated with trypsin–EDTA to detach the cells before their resuspension in fresh media. A subconfluent monolayer of BALB/3T3 clone A31 fibroblast cells was trypsinised, centrifuged at 1000 rpm for 5 min, resuspended in growth medium, and counted.
A cytotoxicity screening was carried out for both ILs (range […]), as well as DIA and Rhe (0.5–200 mg/mL). Briefly, BALB/3T3 clone A31 fibroblast cells were seeded in each well of 96-well plates at a seeding density of 6 × 10^3 cells/well for 24 h, until 60–70% confluence was reached. After 24 h, the medium was then removed from each well and replaced with DMEM containing the samples.
After 4 h of incubation, the media were removed, replaced with fresh medium containing 10% WST-1 reagent solution, and maintained for 4 h at 37° C with 5% CO2. Afterwards, formazan dye absorbance was quantified at 450 nm with the reference wavelength at 655 nm by using a multilabel reader (BioTek 800/TS, Thermo Scientific).

[2] = test system: S. aureus (clinical isolate W4); test: MIC determination (microdilution); type: cell-based, Staphylococcus aureus
Method: (§1) A clinical isolate of S. aureus (W4) and the reference strain of P. aeruginosa ATCC 27853 were used in the study. For the preparation of stock cultures, bacterial strains were grown in Luria–Bertani broth (LB, Oxoid, Basingstoke, Hampshire, UK) until the late-log phase, subdivided into aliquots, and kept frozen at −80 °C until use. Identification and susceptibility testing of the S. aureus W4 strain were performed using MALDI-TOF (Bruker Daltonics, Bremen, Germany) and the BD Phoenix susceptibility testing system (BD, Milan, Italy), respectively.
(§2) The susceptibility of the bacterial strains to each of the tested compounds was assessed in terms of MIC values according to the standard microdilution method (Clinical and Laboratory Standards Institute–CLSI, 2018), with some modifications. Briefly, the bacteria were grown in LB broth until the exponential growth phase and then diluted in the same medium to reach a final density of 5 × 10^6 CFU/mL. A volume of 10 μL of the bacterial suspensions was added to 90 μL of LB in a 96-well plate in the absence (viability control) or presence of the test compound at different concentrations.

P. aeruginosa ATCC 27853 [3] = test: MIC determination (microdilution); type: cell-based, Pseudomonas aeruginosa
Method: as §1, §2

S. aureus W4 [4] = test: Biofilm inhibition assay (crystal violet); type: cell-based, Staphylococcus aureus; conditions: any of the concentrations tested (3.12, 6.25, 12.5 μg/mL)
Method: (§3) After overnight growth in LB, cultures of P. aeruginosa ATCC 27853 and S. aureus W4 were diluted 1:100 in LB or in 50% tryptone soy broth (TSB, Oxoid) supplemented with 0.25% glucose (Sigma), respectively. The bacterial suspensions were dispensed into flat-bottomed polystyrene 96-well microplates (Corning Costar, Lowell, MA, USA) in the presence of sub-MIC concentrations of Rhe and DIA (3.12, 6.25, and 12.5 μg/mL). A sample containing 0.8 DMSO % (corresponding to the highest concentration of DMSO tested) was used as a control. The microplates were incubated statically at 37 °C for 24 h, and the biofilm biomass was estimated by CV (Sigma-Aldrich) staining assay, as previously described.

P. aeruginosa ATCC 27853 [5] = test: Biofilm inhibition assay (crystal violet); type: cell-based, Pseudomonas aeruginosa; conditions: any of the concentrations tested (3.12, 6.25, 12.5 μg/mL)
Method: as §3

S. aureus W4 [6] = test: Killing assay; type: cell-based, Staphylococcus aureus; conditions: 3 h incubation in 5% TSB; DIA 0.34 M, ILs 0.27 M
Method: (§4) To this end, the bacterial strains were grown in TSB until the exponential phase, and approximately 5 × 10^4 CFU/mL-contained in 10 μL-was added to 5 μL of TSB, 35 μL of water, and 50 μL of one of the following solutions corresponding to the eye drop compositions tested in vivo: Bet6 or Carn6 with 0.27 M or 0.34 M DIA, plain DIA (0.34 M) solution, or plain Bet6/plain Carn6, both at 0.27 M. All solutions were prepared in CB. The samples were incubated at 37 °C with shaking for 3 h. A sample containing 0.6% DMSO (corresponding to the highest concentration of DMSO tested) was used as a control. Following incubation, the samples were diluted 10-fold in LB and plated on tryptone soy agar (TSA, Oxoid) to determine the number of CFU. Bactericidal activity was defined as a reduction of at least 3 Log10 in the number of viable bacteria as compared to the inoculum.

P. aeruginosa ATCC 27853 [7] = test: Killing assay; type: cell-based, Pseudomonas aeruginosa; conditions: 3 h incubation in 5% TSB; DIA 0.34 M, ILs 0.27 M
Method: as §4

What does the source list for `CC(=O)Oc1cccc2c1C(=O)c1c(OC(C)=O)cc(C(=O)O)cc1C2=O` [DIA, diacerein]?
IC50 [1]: 116 µg/mL (≈ 316 µM); MIC ([2]; Staphylococcus aureus, planktonic cells, 24 h, 37 °C): 50 µg/mL (≈ 136 µM); antibacterial effect ([2]; in words (discussion)): exert antibacterial effects; MIC (P. aeruginosa ATCC 27853 [3]; Pseudomonas aeruginosa, ATCC27853, planktonic cells, 24 h, 37 °C): > 50 µg/mL; antibacterial effect (P. aeruginosa ATCC 27853 [3]; in words (discussion)): inactive; biofilm formation (CV staining, OD 570 nm) (S. aureus W4 [4]): no significant effects; biofilm formation (CV staining, OD 570 nm), difference vs control (P. aeruginosa ATCC 27853 [5]): not statistically significant; bactericidal effect (S. aureus W4 [6]): no evident bactericidal effect; bactericidal effect (P. aeruginosa ATCC 27853 [7]): no evident bactericidal effect

From PMC9916883, “Betaine- and L-Carnitine-Based Ionic Liquids as Solubilising and Stabilising Agents for the Formulation of Antimicrobial Eye Drops Containing Diacerein” (International Journal of Molecular Sciences, 2023)
